Data: patent US8198098B2, “Optical measurement method for determining the pH of a medium using ageladine A as a fluorescent pH indicator” (Stiftung Alfred-Wegener-Institut fuer Polar-und …, priority 2007, dated 2012)
Entries after “also recorded” stand apart in the source; their conditions may differ.

Legend:
[1] = detectable pH range of the fluorescent pH indicator; taken from probes.invitrogen.com handbook table; cited from earlier work
PC-12 cells = test: staining of cells with ageladine A and measurement of intracellular pH; format: cell-based, rat; details: PC-12 cells incubated with ageladine A, excitation 380 nm
Experimental: FIGS. 2A, 2B show images, at 400-times magnification, of cells (PC-12 cells, rat, deposited at DSMZ) incubated with ageladine A and stained by means of the same. Excitation took place using UV light with a wavelength of 380 nm.
The fluorescence ratio value (340 nm/380 nm) is plotted over time (time in s). The various pHs of the buffer solution are marked as parameters on the graph. It can clearly be recognized that the fluorescence emission follows the extracellular increase of the pH of the solution in a wide range (pH6.5 to pH3). The change of the intracellular pH is only a few tenths around pH7, as a result of which a very high measurement resolution of the pH indicator results.

[2] = fluorescence intensity of ageladine A as a function of the pH of the solution; format: physicochemical
Excerpt: The optical measurement method according to an embodiment of the present invention includes an alternative fluorescent pH indicator based on ageladine A. Ageladine A is a known natural marine substance in the form of a pyrrole-imidazole alkaloid which has heretofore been used exclusively for medical purposes. Ageladine A can be obtained both from marine sponges and produced synthetically. It is therefore readily possible, by means of the total syntheses described, to prepare large quantities of ageladine A without having to have recourse to marine sponges. […] When using ageladine A as a fluorescent pH indicator, pH changes of the medium to be investigated between pH4 and pH9 can be reliably optically indicated by means of a changeable fluorescence intensity in such a manner that the emitted fluorescence intensity increases as the pH falls. […] Advantageously, samples that have been taken (in vitro), but also living cells, tissue and entire organisms (in vivo) can be incubated with ageladine A as fluorescent pH indicator and stained in this manner by means of the fluorescence in the green range. This enables measurements of the pH in vivo and in vitro in a wide range and thus the detection of acidic tissue in organisms due to its fluorescence properties. The fluorescence in the green range increases markedly as the pH falls. […] The fluorescence intensity was measured at 510 nm. […]

[3] = test system: shrimp (Palaemonetes argentinus); test: in-vivo staining of a living organism with ageladine A
Excerpt: The green curve (lowest straight curve) indicates fluorescence intensity values within the buffer solution outside of the shrimp, the red and blue curves (middle and upper curved curves) indicate fluorescence intensity values within the shrimp and thus, in a simple manner, easily recognizable and detectable acidic constituents of the shrimp.

stability of fluorescence under UV irradiation ([2]; despite UV irradiation) | Structure (SMILES) | PH RANGE [1] | staining of cells (PC-12 cells) | stability of the stainings ([2]; cells, tissue, organisms incubated with ageladine A) | penetration into tissue ([3]; intact, living organisms, on account of lipophilic structure (bromination)) | in-vivo staining of tissue ([3]; shrimp incubated with ageladine A, irradiated with UV light)
– | O=S(=O)([O-])c1cc(O)c2ccc3c(S(=O)(=O)[O-])cc(S(=O)(=O)[O-])c4ccc1c2c34.[Na+].[Na+].[Na+] [HPTS (pyranine), pyranine] | 7.0-8.0 | – | – | – | –
– | O=c1c2cccc3c(NCCN4CCOCC4)ccc(c32)c2nc3ccccc3n12 [LysoSensor Green DND-189] | 4.5-6.0 | – | – | – | –
stable for hours | Nc1nc2ccnc(-c3cc(Br)c(Br)[nH]3)c2[nH]1 [ageladine A] | – | stained | stable over hours to days; also recorded: last for at least a plurality of days | penetrates very quickly and far into the tissue | acidic structures (mouth-digestive region) in the shrimp were stained
